Experimental data as given in patent publication EP1606307B1, “ESTRIENO[3,2-B]/[3,4-C]PYRROLE DERIVATIVES USEFUL AS MODULATORS OF THE ESTROGEN RECEPTORS” (Ortho-McNeil Pharmaceutical, Inc., priority 2002, dated 2004).

How the values were obtained:
[1] = biological target: T1, human estrogen receptor β (Homo sapiens, UniProt Q92731); test: Estrogen Receptor β Fluorescence Polarization Assay (Fluormone ES2 displacement); type: binding; conditions: read-out: ERβ at 1 µM % Inhibition
T1 construct: purchased Panvera
Description: This assay monitors binding of a fluorescent analog of estrogen (Fluormone ES2, Panvera) to the estrogen receptor. Plates were read in a fluorometer that can be set to polarization mode. A decrease in fluorescence relative to vehicle control is an indication of binding of a compound to the receptor.
It is crucial to avoid introduction of air bubbles into the reaction in each well of the 96 well plate throughout this procedure. (Bubbles on the surface of the reaction disrupt light flow, affecting the polarization reading.) However, it is also crucial to effectively mix the reaction components upon addition to the well.
On ice, a 2X standard mixture of Assay Buffer (Panvera), 10 nM DTT and 40 nM ES2 was prepared. On ice, a 2X reaction mixture of Assay Buffer (Panvera), and 20 nM human estrogen receptor β (hER-β, Panvera) and 40 nM ES2 was also prepared.
Dilutions of test compound were prepared in 30% (v/v) dimethyl sulfoxide/50 mM HEPES, pH 7.5. At this point, the dilutions were 40X the final required concentration.
The standard mixture at 50 µL was then added to each well. The reaction mixture at 48 µL was added to all wells. The compound dilution at 2.5 µL was added to the appropriate wells. The reaction mixtures were mixed using a manual pipette, a roll of aluminum foil adhesive cover was placed on the plate and the plate incubated at room temperature for 1 hour.
Each well on the plate was then read in an LjL Analyst with an excitation wavelength of […] and an emission wavelength of 538.

[2] = biological target: T2, human estrogen receptor α (Homo sapiens, UniProt P03372); test: Estrogen Receptor α Flash Plate Assay (binding of radiolabeled estrogen); conditions: for inhibition at 1 µM: read-out: ERα at 1µM % Inhibition; for IC50: read-out: ERα Binding IC50
T2 construct: purchased Panvera
T2 sequence (P03372 1-595): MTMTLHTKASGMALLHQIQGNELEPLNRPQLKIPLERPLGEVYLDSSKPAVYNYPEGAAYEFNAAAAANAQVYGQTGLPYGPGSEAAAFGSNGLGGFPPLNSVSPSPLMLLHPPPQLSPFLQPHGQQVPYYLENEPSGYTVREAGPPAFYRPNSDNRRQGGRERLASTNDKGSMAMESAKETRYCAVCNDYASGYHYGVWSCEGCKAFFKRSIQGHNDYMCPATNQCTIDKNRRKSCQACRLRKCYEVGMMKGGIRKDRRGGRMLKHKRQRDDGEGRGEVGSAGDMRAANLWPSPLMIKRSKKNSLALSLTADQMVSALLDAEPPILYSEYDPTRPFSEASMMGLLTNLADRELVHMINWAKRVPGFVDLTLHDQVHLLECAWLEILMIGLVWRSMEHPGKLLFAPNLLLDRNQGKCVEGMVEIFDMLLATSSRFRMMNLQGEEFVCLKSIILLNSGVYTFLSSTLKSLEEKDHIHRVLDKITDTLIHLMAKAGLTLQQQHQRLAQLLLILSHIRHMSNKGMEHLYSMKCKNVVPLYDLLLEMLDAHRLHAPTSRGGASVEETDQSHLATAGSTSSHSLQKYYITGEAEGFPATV
Description: This assay monitors binding of radiolabeled estrogen to the estrogen receptor. It was performed on a BioMek 2000 (Beckman). Plates were read in a scintillation counter (Packard TopCount), with decreased counts an indication of binding of a compound to the receptor. The assay was run according to the procedure described by Allan, et al., Anal. Biochem. (1999), 275(2), 243-247.
On day one, 100 µL of Estrogen Screening Buffer (ESB, Panvera) containing 5mM dithiothreitol (DTT, Panvera), 0.5 µg mouse anti-estrogen receptor monoclonal antibody (SRA-1010, Stressgen) and 50 ng purified human estrogen receptor α (nER-α, Panvera) were added to each well of a 96 well FlashPlate Plus plate crosslinked with goat anti-mouse antibodies (NEN Life Sciences). The plate was sealed and incubated at 4°C overnight.
On day two, each well was washed three times with 200 µL PBS, pH 7.2, at room temperature. To each well was then added 98 µL radiolabeled estrogen (0.5 nM, which equals 6 nCi for a 120 Ci/mmol batch, Amersham), diluted in ESB and 5mM dithiothreitol (DTT). To individual wells were then added 2.5 µL test compound diluted in 30% (v/v) dimethyl sulfoxide/50 mM HEPES, pH 7.5. The wells were mixed three times by aspiration, the plate sealed and incubated at room temperature for one hour. The wells were then counted for 1 min in a TopCount scintillation counter (Packard).

[3] = system: Human Endometrial lshikawa Cells; test: Alkaline Phosphatase Assay in Human Endometrial Ishikawa Cells; type: cell-based; conditions: increase in alkaline phosphatase activity vs vehicle
Description: This assay was run according to the procedure described by Albert et a., Cancer Res, […], 50(11), 330-6-10, with minor modification.
Ishikawa cells (from ATCC) were maintained in DMEM/F12 (1:1) phenol red free medium (Gibco) supplemented with 10% calf serum (Hyclone). 24 hours prior to testing, the medium was changed to DMEM/F12 (1:1) phenol red free containing 2% calf serum.
Compounds to be tested in the agonist mode were added to the culture media at varying concentrations. Compounds to be treated in the antagonist mode were prepared similarly, and 10 nM 17β-estradiol was also added to the culture media. The cells were then incubated at 37°C for 3 days. On the fourth day, the media was remove, 1 volume of 1X Dilution Buffer (Clontech) was added to the well followed by addition of 1 volume of Assay Buffer (Clontech). The cells were then incubated at room temperature for 5 minutes. 1 volume of freshly prepared Chemiluminescence Buffer (1 volume of chemiluminescent substrate (CSPD) in 19 volume Chemiluminescent Enhancer with final concentration of CSPD at 1.25 mM; Sigma Chemical Co.) was added. The cells were incubated at room temperature for 10 minutes and then quantified on a luminometer. The increase of chemiluminescence over vehicle control was used to calculate the increase in alkaline phosphatase activity.

[4] = system: MCF-7 cells; test: MCF-7 Cell Proliferation Assay (14C-thymidine incorporation); type: cell-based; conditions: Homo sapiens, MCF7, increase in 14C-thymidine vs vehicle, read-out: MCF7 (Breast) EC50
Description: This assay was run according to the procedure described by Welshons, et al., (Breast Cancer Res. Treat., 1987, 10(2), 169-75), with minor modification.
Briefly, MCF-7 cells (from Dr. C. Jordan, Northwestern University) were maintained in RPMI 1640 phenol red free medium (Gibco) in 10% FBS (Hyclone), supplemented with bovine insulin and non-essential amino acid (Sigma). The cells were initially treated with 4-hydoxyltamoxifen (10^-8 M) and let stand at 37°C for 24 hours. Following this incubation with tamoxifen, the cells were treated with compounds at various concentrations.
Compounds to be tested in the agonist mode were added to the culture media at varying concentrations. Compounds to be treated in the antagonist mode were prepared similarly, and 10 nM 17β-estradiol was also added to the culture media. The cells were incubated for 24 hours at 37°C. Following this incubation, 0.1 µCi of ^14C-thymidine (56mCi/mmol, Amersham) was added to the culture media and the cells were incubated for an additional 24 hours at 37°C. The cells were then washed twice with Hank's buffered salt solution (HBSS) (Gibco) and counted with a scintillation counter. The increase in the ^14C-thymidine in the compound treated cells relative to the vehicle control cells were reported as percent increase in cell proliferation.

T1 sequence (Q92731 whole entry): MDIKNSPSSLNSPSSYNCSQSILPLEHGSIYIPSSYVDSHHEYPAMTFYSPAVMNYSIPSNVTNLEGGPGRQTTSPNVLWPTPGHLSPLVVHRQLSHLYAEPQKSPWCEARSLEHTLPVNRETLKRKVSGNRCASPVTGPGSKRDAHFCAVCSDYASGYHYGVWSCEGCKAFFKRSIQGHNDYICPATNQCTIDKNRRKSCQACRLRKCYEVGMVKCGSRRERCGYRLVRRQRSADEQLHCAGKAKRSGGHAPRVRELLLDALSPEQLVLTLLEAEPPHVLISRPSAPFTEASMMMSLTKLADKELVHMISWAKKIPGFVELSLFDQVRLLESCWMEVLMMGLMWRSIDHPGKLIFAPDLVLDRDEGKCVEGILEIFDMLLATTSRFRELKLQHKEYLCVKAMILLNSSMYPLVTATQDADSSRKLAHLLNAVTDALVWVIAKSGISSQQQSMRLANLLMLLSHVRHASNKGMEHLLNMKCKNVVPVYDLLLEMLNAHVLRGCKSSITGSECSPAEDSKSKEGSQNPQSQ

| SMILES | inhibition at 1 µM [1] | inhibition at 1 µM [2] | EC50 [3] | IC50 [2] | EC50 [4] |
| --- | --- | --- | --- | --- | --- |
| C[C@]12CCC3c4cc5cc[nH]c5cc4CCC3C1CCC2=O (stereo partly shown) [Compound 3] | – | – | 1.9 nM | 2200 nM | 240 nM |
| C[C@]12CCC3c4ccc5[nH]ccc5c4CCC3C1CCC2=O (stereo partly shown) [Compound 4] | – | – | 1.8 nM | 1400 nM | 280 nM |
| C[C@]12CCC3c4ccc5[nH]ccc5c4CCC3C1CC[C@@H]2O (stereo partly shown) [Compound 6] | – | – | 0.21 nM | 42 nM | 2.9 nM |
| C[C@]12CCC3c4cc5cc[nH]c5cc4CCC3C1CC[C@@H]2O (stereo partly shown) [Compound 8] | – | – | 0.44 nM | 40 nM | 11 nM |
| C[C@]12CCC3c4cc5cc[nH]c5cc4CCC3C1CC[C@@H]2OC(=O)CCC(=O)O (stereo partly shown) [Compound 13] | – | – | 1.2 nM | 920 nM | 15 nM |

Now from value to molecule, other results behind:

| inhibition at 1 µM [1] | inhibition at 1 µM [2] | SMILES | EC50 [3] | IC50 [2] | EC50 [4] |
| --- | --- | --- | --- | --- | --- |
| 6.2% | 11% | C[C@]12CCC3c4cc5ccn(S(C)(=O)=O)c5cc4CCC3C1CCC2=O (stereo partly shown) [Compound 1] | – | – | – |
| 27% | 45% | C[C@]12CCC3c4ccc5c(ccn5S(C)(=O)=O)c4CCC3C1CCC2=O (stereo partly shown) [Compound 2] | – | – | – |
| 14% | 19% | C[C@]12CCC3c4cc5ccn(S(C)(=O)=O)c5cc4CCC3C1CC[C@@H]2O (stereo partly shown) [Compound 7] | – | – | – |
| 96% | 95% | CCCCC(=O)O[C@H]1CCC2C3CCc4cc5[nH]ccc5cc4C3CC[C@@]21C (stereo partly shown) [Compound 12] | – | – | – |
| 66% | 81% | CSc1c[nH]c2ccc3c(c12)CCC1C3CC[C@]2(C)C(=O)CCC12 (stereo partly shown) [Compound 15] | – | – | – |
